# Measured values published in patent US20210300940A1 (Merck Patent GmbH, priority 2018, published 2021).
# Where a name gives a salt, the structure may show the parent alone.
# Columns and labels:
# TLR7 = biological target: T1, TLR7 (Homo sapiens, UniProt Q9NYK1); experiment: HEK/293 TLR7 Cell Assay; assay type: cell-based; settings: TLR7/NFKb HEK cells, R848 agonist 10 uM final concentration, Steady-Glo readout; read-out: TLR7 potency
# T1 construct: expressed in transfected cells; host or cells: HEK/293 cells carrying TLR7 and an NF-kB luciferase reporter
# T1 sequence (Q9NYK1 27-1049): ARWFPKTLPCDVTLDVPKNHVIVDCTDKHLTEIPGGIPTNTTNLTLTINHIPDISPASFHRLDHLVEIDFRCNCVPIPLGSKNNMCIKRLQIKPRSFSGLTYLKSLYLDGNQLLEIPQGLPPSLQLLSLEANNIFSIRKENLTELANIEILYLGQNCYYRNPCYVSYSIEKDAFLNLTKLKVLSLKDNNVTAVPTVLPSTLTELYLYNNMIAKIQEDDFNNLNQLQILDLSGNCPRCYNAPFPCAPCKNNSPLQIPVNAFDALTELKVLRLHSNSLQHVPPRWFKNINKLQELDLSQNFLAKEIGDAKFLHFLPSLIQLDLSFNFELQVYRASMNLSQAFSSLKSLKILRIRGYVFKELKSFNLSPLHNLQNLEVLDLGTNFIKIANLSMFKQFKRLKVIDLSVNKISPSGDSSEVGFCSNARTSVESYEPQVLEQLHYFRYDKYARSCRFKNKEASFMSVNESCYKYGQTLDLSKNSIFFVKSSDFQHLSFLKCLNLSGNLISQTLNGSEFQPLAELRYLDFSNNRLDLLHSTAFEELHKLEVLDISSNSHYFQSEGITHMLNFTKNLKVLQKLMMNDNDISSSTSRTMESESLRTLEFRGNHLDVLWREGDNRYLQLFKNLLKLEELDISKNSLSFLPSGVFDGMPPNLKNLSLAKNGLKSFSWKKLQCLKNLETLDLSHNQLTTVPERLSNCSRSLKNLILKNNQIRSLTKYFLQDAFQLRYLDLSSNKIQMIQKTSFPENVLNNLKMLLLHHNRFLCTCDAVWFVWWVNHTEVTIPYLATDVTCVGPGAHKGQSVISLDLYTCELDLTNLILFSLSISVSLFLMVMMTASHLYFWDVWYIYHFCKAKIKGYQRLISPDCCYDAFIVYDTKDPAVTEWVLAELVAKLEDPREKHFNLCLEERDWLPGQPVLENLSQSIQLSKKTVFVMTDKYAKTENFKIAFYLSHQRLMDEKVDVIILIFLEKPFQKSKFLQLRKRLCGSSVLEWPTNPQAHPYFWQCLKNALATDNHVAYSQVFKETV
# Summary of the method: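 TLR7/NF-κB reporter HEK293 cells, 5000/well, cultured 24 h, then preincubated 30 min with compound before R848 agonist (10 uM final). After 5 h stimulation, Steady-Glo luciferase luminescence read.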
# TLR8 = biological target: T2, TLR8 (Homo sapiens, UniProt Q9NR97); experiment: HEK/293 TLR8 Cell Assay; assay type: cell-based; settings: HEK cells, R848 agonist 30 uM final concentration, Steady-Glo readout; read-out: TLR8 potency
# T2 construct: expressed in transfected cells; host or cells: HEK/293 reporter cells (NF-kB luciferase)
# T2 sequence (Q9NR97 27-1041): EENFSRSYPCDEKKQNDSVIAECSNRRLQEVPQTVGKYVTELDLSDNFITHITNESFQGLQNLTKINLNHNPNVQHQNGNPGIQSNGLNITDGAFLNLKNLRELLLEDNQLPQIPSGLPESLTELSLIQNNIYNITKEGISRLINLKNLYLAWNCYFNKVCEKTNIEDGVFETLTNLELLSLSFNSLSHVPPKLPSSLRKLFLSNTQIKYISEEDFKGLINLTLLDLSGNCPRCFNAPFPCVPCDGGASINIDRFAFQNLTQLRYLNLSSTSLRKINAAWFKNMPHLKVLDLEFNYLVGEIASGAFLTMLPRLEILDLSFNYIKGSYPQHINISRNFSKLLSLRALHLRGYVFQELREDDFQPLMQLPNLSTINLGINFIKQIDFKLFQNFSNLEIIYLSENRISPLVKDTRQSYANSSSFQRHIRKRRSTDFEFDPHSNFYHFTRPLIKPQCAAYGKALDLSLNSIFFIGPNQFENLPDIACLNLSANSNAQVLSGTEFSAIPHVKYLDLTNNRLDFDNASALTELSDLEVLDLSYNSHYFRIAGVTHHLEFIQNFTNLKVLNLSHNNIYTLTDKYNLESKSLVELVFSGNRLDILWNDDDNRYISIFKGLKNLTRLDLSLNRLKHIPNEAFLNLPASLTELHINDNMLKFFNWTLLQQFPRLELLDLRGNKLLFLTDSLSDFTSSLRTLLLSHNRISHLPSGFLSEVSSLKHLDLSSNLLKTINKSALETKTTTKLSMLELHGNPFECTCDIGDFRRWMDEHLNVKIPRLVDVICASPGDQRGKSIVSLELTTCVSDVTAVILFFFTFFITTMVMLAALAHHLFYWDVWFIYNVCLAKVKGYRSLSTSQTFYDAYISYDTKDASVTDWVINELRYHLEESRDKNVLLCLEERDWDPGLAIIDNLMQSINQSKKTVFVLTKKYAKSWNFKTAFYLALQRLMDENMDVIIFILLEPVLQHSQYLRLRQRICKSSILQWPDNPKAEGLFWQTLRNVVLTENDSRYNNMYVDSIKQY
IC50 (TLR7),IC50 (TLR8),SMILES
75 to 150 nM,< 75 nM,"CNC(=O)CCN[C@@H]1C[C@H](C)CN(c2ccc(C(F)(F)F)c3ncccc23)C1 [Example 56, N-Methyl-3-[(3R,5S)-5-methyl-1-(8-trifluoromethyl-quinolin-5-yl)-piperidin-3-ylamino]-propionamide]"
< 75 nM,< 75 nM,"C[C@H]1C[C@@H](N)CN(c2cnc(C(F)(F)F)c3ncccc23)C1 [Example 7, (3R,5S)-5-Methyl-1-(8-trifluoromethyl-[1,7]naphthyridin-5-yl)-piperidin-3-ylamine hydrochloride]"
> 150 nM,< 75 nM,"CC(C)[C@H](O)C(=O)N[C@@H]1C[C@H](C)CN(c2cnc(C#N)c3nccnc23)C1 [Example 196, (S)—N-[(3R,5S)-1-(5-Cyano-pyrido[3,4-b]pyrazin-8-yl)-5-methyl-piperidin-3-yl]-2-hydroxy-3-methyl-butyramide]"
> 150 nM,75 to 150 nM,"CN[C@@H](CO)C(=O)N[C@@H]1C[C@H](C)CN(c2ccc(C(F)(F)F)c3ncccc23)C1 [Example 168, (S)-3-Hydroxy-2-methylamino-N-[(3R,5S)-5-methyl-1-(8-trifluoromethyl-quinolin-5-yl)-piperidin-3-yl]-propionamide]"
75 to 150 nM,< 75 nM,"C[C@@H]1CN(c2cnc(C#N)c3ncccc23)C[C@H](CN2CCN(CCO)CC2)O1 [Example 372, 5-{(2S,6R)-2-[4-(2-Hydroxy-ethyl)-piperazin-1-ylmethyl]-6-methyl-morpholin-4-yl}-[1,7]naphthyridine-8-carbonitrile]"
> 150 nM,< 75 nM,"C[C@H]1C[C@@H](NC(=O)[C@@](C)(N)CO)CN(c2ccc(C(F)(F)F)c3ncccc23)C1 [Example 178, (S)-2-Amino-3-hydroxy-2-methyl-N-[(3R,5S)-5-methyl-1-(8-trifluoromethyl-quinolin-5-yl)-piperidin-3-yl]-propionamide]"
> 150 nM,> 150 nM,"N#Cc1ccc(N2C[C@H](n3cccn3)C[C@H](C(F)(F)F)C2)c2nccnc12 (racemic) [Example 156, 8-[cis-3-(1H-pyrazol-1-yl)-5-(trifluoromethyl)piperidin-1-yl]quinoxaline-5-carbonitrile]"
< 75 nM,< 75 nM,C[C@H]1C[C@@H](NC(=O)[C@H](N)CO)CN(c2ccc(C(F)(F)F)c3ncccc23)C1 [Example 167]
< 75 nM,< 75 nM,"C[C@H]1C[C@@H](NC(=O)CC2(F)CCN(C)CC2)CN(c2ccc(C(F)(F)F)c3ncccc23)C1 [Example 83, 2-(4-fluoro-1-methylpiperidin-4-yl)-N-[(3R,5S)-5-methyl-1-[8-(trifluoromethyl)quinolin-5-yl]piperidin-3-yl]acetamide]"
< 75 nM,< 75 nM,"C[C@H]1C[C@@H](NCCNC(N)=O)CN(c2ccc(C(F)(F)F)c3ncccc23)C1 [Example 45, {2-[(3R,5S)-5-Methyl-1-(8-trifluoromethyl-quinolin-5-yl)-piperidin-3-ylamino]-ethyl}-urea]"
> 150 nM,> 150 nM,"C[C@@H]1CN(c2cnc(C#N)c3ncccc23)C[C@H](CN2CCS(=O)(=O)CC2)O1 [Example 376, 5-[(2S,6R)-2-(1,1-Dioxo-1lambda6-thiomorpholin-4-ylmethyl)-6-methyl-morpholin-4-yl]-[1,7]naphthyridine-8-carbonitrile]"
< 75 nM,< 75 nM,"C[C@H]1C[C@@H](NC(=O)NCCN(C)C)CN(c2ccc(C(F)(F)F)c3nccnc23)C1 [Example 141, 3-[2-(dimethylamino)ethyl]-1-[(3R,5S)-5-methyl-1-[8-(trifluoromethyl)quinoxalin-5-yl]piperidin-3-yl]urea]"
75 to 150 nM,< 75 nM,"C[C@H]1C[C@@H](NS(=O)(=O)NC(=O)CC2CCN(C)CC2)CN(c2ccc(C(F)(F)F)c3ncccc23)C1 [Example 202, N-{[(3R,5S)-5-methyl-1-[8-(trifluoromethyl)quinolin-5-yl]piperidin-3-yl]sulfamoyl}-2-(1-methylpiperidin-4-yl)acetamide]"
75 to 150 nM,> 150 nM,"C[C@H]1C[C@@H](NC(=O)CC2CN(C)C2)CN(c2cc(F)c(C#N)c3ncccc23)C1 [Example 59, N-[(3R,5S)-1-(8-Cyano-7-fluoro-quinolin-5-yl)-5-methyl-piperidin-3-yl]-2-(1-methyl-azetidin-3-yl)-acetamide]"
< 75 nM,< 75 nM,"C[C@@H]1CN(c2cnc(C#N)c3ncccc23)C[C@H](C(=O)NCC2CN(C)CCO2)O1 (stereo partly drawn) [Example 271, (2R,6R)-4-(8-Cyano-[1,7]naphthyridin-5-yl)-6-methyl-morpholine-2-carboxylic acid (4-methyl-morpholin-2-ylmethyl)-amide]"
> 150 nM,75 to 150 nM,"C[C@H]1C[C@@H](n2ccnn2)CN(c2ccc(C(F)(F)F)c3nccnc23)C1 (racemic) [Example 154, 5-[cis-3-methyl-5-(1H-1,2,3-triazol-1-yl)piperidin-1-yl]-8-(trifluoromethyl)quinoxaline]"
< 75 nM,> 150 nM,"C[C@@H]1CN(c2ccc(C#N)c3nccnc23)C[C@H](CN2CC(O)C2)O1 [Example 216, 8-[(2S,6R)-2-(3-Hydroxy-azetidin-1-ylmethyl)-6-methyl-morpholin-4-yl]-quinoxaline-5-carbonitrile]"

SMILES,IC50 (TLR7),IC50 (TLR8)
"C[C@@H]1CN(c2ccc(C#N)c3nccnc23)C[C@H](C(=O)NCCS(C)(=O)=O)O1 [Example 256, (2R,6R)-4-(8-cyanoquinoxalin-5-yl)-N-(2-methanesulfonylethyl)-6-methyl morpholine-2-carboxamide]",< 75 nM,< 75 nM
"C[C@H]1C[C@@H](NC(=O)C[C@@H](O)CN(C)C)CN(c2ccc(C#N)c3nccnc23)C1 [Example 211, (3R)—N-[(3R,5S)-1-(8-cyanoquinoxalin-5-yl)-5-methylpiperidin-3-yl]-4-(dimethylamino)-3-hydroxybutanamide]",< 75 nM,< 75 nM
"C[C@@H]1CN(c2ccc(C#N)c3nccnc23)C[C@H](CSCC(O)CO)O1 (stereo partly drawn) [Example 227, 8-[(2R,6R)-2-(2,3-Dihydroxy-propylsulfanylmethyl)-6-methyl-morpholin-4-yl]-quinoxaline-5-carbonitrile]",75 to 150 nM,< 75 nM
C[C@H]1C[C@@H](NC(=O)CCN(C)C)CN(c2ccc(C#N)c3nccnc23)C1 [Example 79],< 75 nM,< 75 nM
